Here are results for 22 compounds from PubChem BioAssay AID248 (DTP/NCI, 2004).

Molecules are shown by their SMILES. “And” between values parts separate entries of the source, which are not always exact repeats. Equal entries are not always repeated. Inconclusive results and toxic doses are left out.

The subject of this experiment is L1210 leukemia ip in BDF1 mice, survival T/C. Description: NCI In Vivo Anticancer Drug Screen. Data for tumor model L1210 Leukemia (intraperitoneal) in B6D2F1 (BDF1) mice. Conditions: higher = longer survival. The method, boiled down:
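Transplanted-tumor mice were given test agent; controls received vehicle only. Survival readings from the two groups were divided (treated over control).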

The mark [1] stands for this setting: endpoint: mean survival time, dose: 100.0 mg/kg/injection, schedule: Q01DX001 (ip), vehicle: Klucel (hydroxypropylcellulose) (HPC).
The mark [2] stands for this setting: endpoint: mean survival time, dose: 100.0 mg/kg/injection, schedule: Q01DX009 (ip), vehicle: saline.
The mark [3] stands for this setting: endpoint: mean survival time, dose: 200.0 mg/kg/injection, schedule: Q01DX001 (ip), vehicle: Klucel (hydroxypropylcellulose) (HPC).
[4] abbreviates: endpoint: mean survival time, dose: 200.0 mg/kg/injection, schedule: Q01DX009 (ip), vehicle: saline.
The mark [5] stands for this setting: endpoint: mean survival time, dose: 400.0 mg/kg/injection, schedule: Q01DX009 (ip), vehicle: saline.
[6] abbreviates: endpoint: mean survival time, dose: 50.0 mg/kg/injection, schedule: Q01DX001 (ip), vehicle: saline.
[7] abbreviates: endpoint: mean survival time, dose: 100.0 mg/kg/injection, schedule: Q01DX001 (ip), vehicle: saline.
Where [8] appears, read: endpoint: mean survival time, dose: 200.0 mg/kg/injection, schedule: Q01DX001 (ip), vehicle: saline.
[9] abbreviates: endpoint: mean survival time, dose: 400.0 mg/kg/injection, schedule: Q01DX001 (ip), vehicle: saline.
The mark [10] stands for this setting: endpoint: mean survival time, dose: 25.0 mg/kg/injection, schedule: Q01DX009 (ip), vehicle: saline.
Setting [11] is: endpoint: mean survival time, dose: 50.0 mg/kg/injection, schedule: Q01DX009 (ip), vehicle: saline.
The mark [12] stands for this setting: endpoint: mean survival time, dose: 100.0 mg/kg/injection, schedule: Q01DX009 (ip), vehicle: saline with Tween-80.

As to `O=C1C=C(C2CCCCC2)C(=O)C2CCCCC12` (stereo not given), the T/C runs as follows: under setting [1], 107 % of control; under setting [2], 92 % of control; under setting [3], 105 % of control; under setting [4], 91 % of control; (endpoint: mean survival time, dose: 400.0 mg/kg/injection, schedule: Q01DX001 (ip), vehicle: Klucel (hydroxypropylcellulose) (HPC)) 114 % of control; under setting [5], 86 % of control.
As for `O=C1OC(CO)C(OC2OC(CO)C(O)C(O)C2O)C(O)C1O` (stereo not given), the T/C by setting is: under setting [2], 97 % of control; under setting [4], 98 % of control; under setting [5], 97 % of control.
For `[O-][n+]1c2ccccc2nc2cc(Cl)ccc21`, the T/C reads like this: (endpoint: mean survival time, dose: 100.0 mg/kg/injection, schedule: Q04DX003 (ip), vehicle: Klucel (hydroxypropylcellulose) (HPC)) 107 % of control; (endpoint: mean survival time, dose: 200.0 mg/kg/injection, schedule: Q04DX003 (ip), vehicle: Klucel (hydroxypropylcellulose) (HPC)) 100 % of control; (endpoint: mean survival time, dose: 400.0 mg/kg/injection, schedule: Q04DX003 (ip), vehicle: Klucel (hydroxypropylcellulose) (HPC)) 96 % of control.
As to `O=S(=O)(O)c1ccc(O)c2ncccc12.[Zn+2]`, the T/C by setting is: under setting [6], 100 % of control; under setting [7], 97 % of control; under setting [8], 97 % of control; under setting [9], 100 % of control.
Regarding `CCN(CC)c1ccc(N=Nc2ccc(S(=O)(=O)O)cc2)cc1`, the T/C by setting is: under setting [10], 97 % of control; under setting [11], 91 % of control; under setting [7], 88 % of control; under setting [2], 100 % of control.
With `Cn1cnc([N+](=O)[O-])c1[Se]c1nc(N)nc2c1ncn2C1OC(CO)C(O)C1O` (stereo not given), the T/C is 161 % of control and 165 % of control (endpoint: mean survival time, dose: 12.5 mg/kg/injection, schedule: Q01DX009 (ip), vehicle: saline); 189 % of control and 201 % of control under setting [10]; 203 % of control and 255 % of control under setting [11].
`CN(C)c1ccc(N(C)C)nn1`: the T/C under setting [12] was 104 % of control.
As to `O=c1cc(Oc2ccc([N+](=O)[O-])cc2)[nH]c(=O)[nH]1`, the T/C by setting is: under setting [1], 96 % of control; under setting [3], 107 % of control.
For the compound `NCCc1ccc(O)c(CO)c1`, the T/C is 105 % of control (endpoint: mean survival time, dose: 100.0 mg/kg/injection, schedule: Q04DX002 (ip), vehicle: saline); 86 % of control (endpoint: mean survival time, dose: 200.0 mg/kg/injection, schedule: Q04DX002 (ip), vehicle: saline); 105 % of control (endpoint: mean survival time, dose: 400.0 mg/kg/injection, schedule: Q04DX002 (ip), vehicle: saline).
For `O=C1CCC2C3CCC(=O)C3C12` (stereo not given), the T/C (endpoint: mean survival time, dose: 75.0 mg/kg/injection, schedule: Q01DX001 (ip), vehicle: saline) was 102 % of control and the T/C (endpoint: mean survival time, dose: 150.0 mg/kg/injection, schedule: Q01DX001 (ip), vehicle: saline) is 97 % of control.
Take `CCOC(=O)/C=C\n1c(=O)cc(C)c2cc3c(C)cc(=O)n(C)c3cc21`: the T/C reads like this: (endpoint: mean survival time, dose: 50.0 mg/kg/injection, schedule: Q01DX001 (ip), vehicle: Klucel (hydroxypropylcellulose) (HPC)) 99 % of control; under setting [1], 87 % of control; under setting [3], 92 % of control.
As to `COc1ccc(-c2c(COC(C)=O)c(COC(C)=O)c3n2CCC3)cc1`, where the note is “endpoint: mean survival time, dose: 50.0 mg/kg/injection, schedule: Q01DX009 (ip), vehicle: Klucel (hydroxypropylcellulose) (HPC)”, the T/C is 113 % of control.
Consider `O=C(Nc1ccc(O)cc1)c1ccc([N+](=O)[O-])cc1`, for which the T/C was 94 % of control (endpoint: mean survival time, dose: 100.0 mg/kg/injection, schedule: Q01DX009 (ip), vehicle: Klucel (hydroxypropylcellulose) (HPC)); 95 % of control (endpoint: mean survival time, dose: 200.0 mg/kg/injection, schedule: Q01DX009 (ip), vehicle: Klucel (hydroxypropylcellulose) (HPC)); 100 % of control (endpoint: mean survival time, dose: 400.0 mg/kg/injection, schedule: Q01DX009 (ip), vehicle: Klucel (hydroxypropylcellulose) (HPC)).
`CCN(CC)CCNC(C)=O`: the T/C was 104 % of control (endpoint: mean survival time, dose: 100.0 mg/kg/injection, schedule: Q04DX003 (ip), vehicle: saline); 101 % of control (endpoint: mean survival time, dose: 200.0 mg/kg/injection, schedule: Q04DX003 (ip), vehicle: saline); 97 % of control (endpoint: mean survival time, dose: 400.0 mg/kg/injection, schedule: Q04DX003 (ip), vehicle: saline).
Turning to `Cc1cc2c(C)c3nc4ccccc4c3c(C)c2c[nH]1`, the T/C by setting is: under setting [6], 107 % of control; under setting [7], 98 % of control; under setting [8], 101 % of control; under setting [9], 107 % of control; (endpoint: mean survival time, dose: 800.0 mg/kg/injection, schedule: Q01DX001 (ip), vehicle: saline) 110 % of control; (endpoint: mean survival time, dose: 1600.0 mg/kg/injection, schedule: Q01DX001 (ip), vehicle: saline) 118 % of control.
For the compound `Cc1nnc2ccnn2c1C`, the T/C was 96 % of control under setting [7], 96 % of control under setting [8] and 100 % of control under setting [9].
For `NC(=O)c1[nH]nc(C2OC(CO)C(O)C2O)c1O` (stereo not given), the T/C (endpoint: mean survival time, dose: 2.5 mg/kg/injection, schedule: Q01DX009 (ip), vehicle: saline) is 115 % of control; the T/C (endpoint: mean survival time, dose: 2.5 mg/kg/injection, schedule: Q04DX003 (ip), vehicle: saline) was 110 % of control; the T/C (endpoint: mean survival time, dose: 5.0 mg/kg/injection, schedule: Q01DX001 (ip), vehicle: saline) is 109 % of control; the T/C (endpoint: mean survival time, dose: 5.0 mg/kg/injection, schedule: Q01DX009 (ip), vehicle: saline) is 96 % of control; the T/C (endpoint: mean survival time, dose: 5.0 mg/kg/injection, schedule: Q04DX003 (ip), vehicle: saline) was 111 % of control and 123 % of control; the T/C (endpoint: mean survival time, dose: 6.6 mg/kg/injection, schedule: Q04DX003 (ip), vehicle: saline) was 107 % of control. Also, the T/C reads like this: (endpoint: mean survival time, dose: 10.0 mg/kg/injection, schedule: Q01DX001 (ip), vehicle: saline) 113 % of control; (endpoint: mean survival time, dose: 10.0 mg/kg/injection, schedule: Q04DX003 (ip), vehicle: saline) 113 % of control and 121 % of control; (endpoint: mean survival time, dose: 20.0 mg/kg/injection, schedule: Q01DX001 (ip), vehicle: saline) 111 % of control; (endpoint: mean survival time, dose: 20.0 mg/kg/injection, schedule: Q04DX003 (ip), vehicle: saline) 121 % of control; (endpoint: median survival time, dose: 0.5 mg/kg/injection, schedule: Q04DX003 (ip), vehicle: saline) 108 % of control; (endpoint: median survival time, dose: 1.0 mg/kg/injection, schedule: Q04DX003 (ip), vehicle: saline) 106 % of control and 107 % of control. Besides, the T/C runs as follows: (endpoint: median survival time, dose: 2.0 mg/kg/injection, schedule: Q04DX003 (ip), vehicle: saline) 107 % of control and 112 % of control; (endpoint: median survival time, dose: 4.0 mg/kg/injection, schedule: Q04DX003 (ip), vehicle: saline) 109 % of control and 118 % of control; (endpoint: median survival time, dose: 8.0 mg/kg/injection, schedule: Q04DX003 (ip), vehicle: saline) 112 % of control and 121 % of control.
For `Cn1c(=O)c2[nH]c(C3CCC3)nc2n(C)c1=O`, the T/C is, setting by setting: under setting [6], 110 % of control; under setting [7], 113 % of control; under setting [8], 101 % of control; under setting [9], 107 % of control.
As for `O=c1cc(N2CCOCC2)nc2ccccn12`, the T/C (endpoint: mean survival time, dose: 100.0 mg/kg/injection, schedule: Q01DX001 (ip), vehicle: carboxymethylcellulose (CMC)) is 100 % of control; the T/C (endpoint: mean survival time, dose: 200.0 mg/kg/injection, schedule: Q01DX001 (ip), vehicle: carboxymethylcellulose (CMC)) was 96 % of control; the T/C (endpoint: mean survival time, dose: 400.0 mg/kg/injection, schedule: Q01DX001 (ip), vehicle: carboxymethylcellulose (CMC)) was 102 % of control.
For the compound `NCC(OC1CCCCC1)C(Cl)(Cl)Cl` (stereo not given), the T/C is 92 % of control (endpoint: mean survival time, dose: 50.0 mg/kg/injection, schedule: Q01DX009 (ip), vehicle: saline with Tween-80) and 97 % of control under setting [12].
`c1cc2c3c(ccc4c3c1CCC4)CCC2`: the T/C (endpoint: mean survival time, dose: 100.0 mg/kg/injection, schedule: Q04DX002 (ip), vehicle: gum acacia) is 91 % of control; the T/C (endpoint: mean survival time, dose: 200.0 mg/kg/injection, schedule: Q04DX002 (ip), vehicle: gum acacia) is 100 % of control; the T/C (endpoint: mean survival time, dose: 400.0 mg/kg/injection, schedule: Q04DX002 (ip), vehicle: gum acacia) is 95 % of control.
As for `Nc1nc(N)c(CCCCc2ccccc2)c(/C=C/c2ccc([N+](=O)[O-])cc2)n1`, the T/C reads like this: (endpoint: mean survival time, dose: 100.0 mg/kg/injection, schedule: Q01DX001 (ip), vehicle: gum acacia) 92 % of control; (endpoint: mean survival time, dose: 200.0 mg/kg/injection, schedule: Q01DX001 (ip), vehicle: gum acacia) 94 % of control; (endpoint: mean survival time, dose: 400.0 mg/kg/injection, schedule: Q01DX001 (ip), vehicle: gum acacia) 95 % of control.
